Results as given in patent US10897915B2, “Method for making coffee products containing cannabis ingredients” (Blacklist Holdings, Inc., priority 2014, dated 2021).

How the values were obtained:
[1] = cited from earlier work
[2] = Coffee mug cross section analysis of brewed cup, 1:10 oil/TM mix underneath the filter; assay type: physicochemical; conditions: 1:10 oil/TM mix underneath filter
Description: This example investigated how THC was interacting with the coffee mug after it had been brewed. A cup of coffee was brewed with the 1:10 oil/TM mix placed in the K-Cup underneath the filter containing coffee grounds.
Two separate aliquots were taken from the cup (top and middle), and then coffee was carefully poured out. Methanol was added to the cup and the oil that had condensed to the sides of the cup was dissolved and quantified.

## CCCCCc1cc(O)c2c(c1)OC(C)(C)[C@@H]1CCC(C)=C[C@@H]21 [THC, delta-9-tetrahydrocannabinol]
[1]
  THC in a 200 mL cup of coffee at aqueous solubility: 0.6 mg
[2]
  THC found in the oily coffee film at the top of the cup: 20-25%
  THC in the coffee: approximately 60%
  THC lost (unknown cause): 20%
